Laboratory results: publication PMC12734683 (Chemistry (Weinheim an Der Bergstrasse, Germany), 2025)
Blank lines part the entries; values can stand above or below the compound they belong to.

Key:
[1] = test system: d(5′‐CGCGAATTCGCG‐3′)2 (DNA, duplex) CGCGAATTCGCG; experiment: ethidium bromide displacement fluorescence quenching, double-log plot; settings: 100 mM phosphate (cation not given); pH 7.0, 298 K; 20 μM DNA, 5.2 μM ethidium bromide displaced; apparent
[2] = test system: d(5′‐CGCGAATTCGCG‐3′)2 (DNA, duplex) CGCGAATTCGCG; experiment: 1H NMR titration; settings: 100 mM phosphate (cation not given), H2O:D2O 9:1, pH 7.0, 298 K, r = 0.5-2
NIH-3T3 = experiment: Cell growth assay (IncuCyte Zoom), cytotoxicity to normal fibroblasts; format: cell-based, mouse; settings: NIHT‐3T3 normal fibroblasts
Procedure: (§1) The human breast adenocarcinoma cell line MCF-7 and the mouse embryonic fibroblast cell line NIH-3T3 were cultured in high- glucose Dulbecco’s modified Eagle’s medium (DMEM) supplemented with 10% fetal bovine serum and 1% penicillin/ streptomycin. The human ovarian cancer cell line A2780 and its cisplatin resistant derivative (A2780cis-res) were maintained in RPMI-1640 medium supplemented with 10% fetal bovine serum and 1% penicillin/streptomycin. All cell lines were routinely passaged every 2 – 3 days, and incubated at 37 °C in a humidified atmosphere containing 5% CO2.
(§2) Cell growth and the cytotoxic effects of the complexes were monitored using the IncuCyte Zoom system and software(Essen BioScience, Hertfordshire, United Kingdom), as previously described^84. The IC50 values of cisplatin and of the complexes were determined by fitting a log(concentration) versus normalized response curve using GraphPad Prism, version 8.01.

A2780cis‐res = experiment: Cell growth assay (IncuCyte Zoom), cytotoxicity; format: cell-based, human
Procedure: as §1, §2

A2780 = experiment: Cell growth assay (IncuCyte Zoom), cytotoxicity; format: cell-based, human
Procedure: as §1, §2

MCF‐7 = experiment: Cell growth assay (IncuCyte Zoom), cytotoxicity; format: cell-based, human
Procedure: as §1, §2

SMILES: Cc1ccc(C(C)C)cc1.Cc1ccc(C(C)C)cc1.[Ru+2].[Ru+2].[c-]1cccc2ccc3cccnc3c12.c1cc(CCc2ccncc2)ccn1.c1cnc2c(c1)ccc1cccnc12
- binding ([2]; groove binding at duplex ends): yes
- K b [1]: 28.51 ± 0.97 × 10^3 M^-1

SMILES: Cc1ccc(C(C)C)cc1.Cc1ccc(C(C)C)cc1.[Ru+2].[Ru+2].[c-]1cccc2ccc3cccnc3c12.c1cc(-c2ccncc2)ccn1.c1cnc2c(c1)ccc1cccnc12
- binding ([2]; minor-groove intercalation): yes
- K b [1]: 5.59 ± 0.21 × 10^3 M^-1

SMILES: N.N.[Cl][Pt][Cl] [cisplatin, reference compound]
- IC50 (NIH-3T3): 3.02 ± 0.36 µM
- Resistant factor IC50 (A2780cisR)/IC50(A2780) (A2780cis‐res): 7.3
- IC50 (A2780cis‐res; A2780cis‐res cells): 18.4 ± 1.59 µM
- Selectivity index IC50(NIHT‐3T3)/IC50(A2780cis‐res) (A2780cis‐res; third of three values in the cell): 0.2
- Selectivity index IC50(NIHT‐3T3)/IC50(A2780) (A2780): 0.2
- IC50 (A2780; A2780 cells): 2.54 ± 0.11 µM
- IC50 (MCF‐7; MCF‐7 cells): 14.6 ± 1.25 µM
- Selectivity index IC50(NIHT‐3T3)/IC50(MCF‐7) (MCF‐7; first of three values in the cell): 1.2

The next lines start with the values.

- K b [1]: 807.6 ± 19.9 × 10^3 M^-1
SMILES: Cc1ccc(C(C)C)cc1.Cc1ccc(C(C)C)cc1.[Ru+2].[Ru+2].[c-]1cccc2ccc3cccnc3c12.[c-]1cccc2ccc3cccnc3c12.c1cc(-c2ccncc2)ccn1

- K b [1]: 298.4 ± 4.3 × 10^3 M^-1
SMILES: Cc1ccc(C(C)C)cc1.Cc1ccc(C(C)C)cc1.[Ru+2].[Ru+2].[c-]1cccc2ccc3cccnc3c12.[c-]1cccc2ccc3cccnc3c12.c1cc(CCc2ccncc2)ccn1

- binding ([2]; groove binding): yes
- K b [1]: 6.70 ± 0.58 × 10^3 M^-1
SMILES: Cc1ccc(C(C)C)cc1.Cc1ccc(C(C)C)cc1.[Ru+2].[Ru+2].[c-]1cccc2ccc3cccnc3c12.c1cc(CCCc2ccncc2)ccn1.c1cnc2c(c1)ccc1cccnc12

- K b [1]: 602.8 ± 76.1 × 10^3 M^-1
SMILES: Cc1ccc(C(C)C)cc1.Cc1ccc(C(C)C)cc1.[Ru+2].[Ru+2].[c-]1cccc2ccc3cccnc3c12.[c-]1cccc2ccc3cccnc3c12.c1cc(CCCc2ccncc2)ccn1
